Experimental data: US5196513A, “Synthetic peptides derived from the beta-subunit of human thyroid stimulating hormone” (Mayo Foundation for Medical Education and Research, priority 1991, dated 1993)
Residues, ends and D or L forms follow the SMILES beside them.

Legend:
[1] = target: T1, porcine TSH receptor (porcine thyroid membranes) (Sus scrofa, UniProt Q8SPP9); assay: Porcine thyroid membrane TSH radio-receptor assay (inhibition of 125I-bTSH binding); conditions: concentration inhibiting 125I-bTSH binding to porcine thyroid membrane by 50%; mean ± se of at least 3 assays
T1 construct: Frozen porcine thyroid glands were purchased; tissue Pel-Freez Biologicals; host or cells: porcine thyroid glands, crude membrane preparation
Source text: Frozen porcine thyroid glands were purchased (Pel-Freez Biologicals, Rogers, Ak.) and prepared using the same procedures as for the human glands.
(§1) Highly purified bTSH (30 U/mg, supplied by Dr. J. G. Pierce, formerly of UCLA) was radio-iodinated (Na^125 I, Amersham, Chicago) by a lactoperoxidase technique to a specific activity averaging 40-50 μCi/μg as previously described, Takahashi et al., supra, then purified by Sephadex G-100 chromatography.
(§2) The TSH radio-receptor assay (RRA) utilized for the studies has been well described previously; see Takahashi et al., supra and Morris et al., Endocrinology, 123:456-462 (1988), the disclosure of which is incorporated by reference herein. Briefly, for either human or porcine thyroid RRA, the incubation mixture consisted of the following: 10 mg equivalents of wet weight (mg eq) crude thyroid membrane preparation, 0.124 ng [^125 I]iodo-bTSH (approximately 20,000 cpm), 0.2% Triton X-100, and the noted amounts of synthetic peptides or unlabeled bTSH in 0.5 ml 40 mM Tris, 0.1% BSA, pH 7.4. Bound label was separated from free after 2 hrs incubation at 25° C. by addition of a 1 ml 30% polyethylene glycol (PEG, Baker, Phillipsburg, N.J.) 6000 in 1M NaCl and centrifugation. The resulting pellet was counted in a gamma counter. Non-specific binding was determined by addition of a 100 mU/ml crude bTSH (Sigma, St. Louis).

[2] = target: T2, TSH receptor on human thyroid membranes (Homo sapiens, UniProt P16473); assay: Human thyroid membrane TSH radio-receptor assay (inhibition of 125I-bTSH binding); conditions: for EC50: concentration inhibiting 125I-bTSH binding to human thyroid membrane by 50%, mean ± se of at least 3 assays; for Inhibition of TSH binding to human thyroid membrane (in words): human thyroid membrane RRA
T2 construct: Crude membrane preparations were prepared from the frozen tissue; from tissue; host or cells: human thyroid tissue (Graves' disease patients), crude 2000 x g membrane fraction
Procedure: Thyroid tissue from patients with Graves' disease was obtained at surgery and promptly frozen and maintained at -70° C. Crude membrane preparations were prepared from the frozen tissue as previously described, Takahashi et al., J. Clin. Endocrinol. Metab., 47:870-876 (1978), the disclosure of which is incorporated by reference herein. Briefly, the tissue was homogenized with a Polytron homogenizer (Brinkmann Instruments,Westbury, N.Y.), and the 2000×g fraction was collected by centrifugation, washed, and resuspended in 40 mM Tris, 200 mM sucrose, pH 7.4. Membrane preparations were maintained at -70° C. until assay.
as §1, §2

FRTL5 cells = FRTL5 cells (Rattus norvegicus, UniProt P21463); assay: TSab bioassay, inhibition of TSab-stimulated cAMP generation in FRTL5 cells; type: cell-based; conditions: for Serum samples in which TSab-stimulated cAMP was significantly inhibited (p<0.05) / samples tested: peptide 150 μg/ml; for Inhibition of TSab-stimulated cAMP generation (in words): peptide 50 and 150 μg/ml
Procedure: FRTL5 cells were cultured in Hams F-12 medium supplemented with 5% calf serum and a preparation containing 6 hormones (6H), including 10 mU/ml bTSH (Sigma, St. Louis, Mo.), as previously described. Ambesi-Impiombato et al., Proc. Natl. Acad. Sci. U.S.A., 77:3455 (1980), the disclosure of which is incorporated by reference herein. The cells were enzymatically removed from flasks and plated in 24 well plates containing 6H at a density of 150,000 cells per well. After 4 days, the cells were washed and the media replaced with media containing insulin only (1H). All subsequent assays were performed on cells deprived of TSH for 5-7 days.
Serum samples from 15 patients with elevated TSab levels were selected from the clinical chemistry laboratory. The TSab values, expressed as an index, [formula] 63:707 (1988)]ranged from 10-20 with an average of 13.8±3.3. Normal serum has an index of less than 1.3.
The bioassay described by Kasagi et al., supra, with modifications as previously noted above, was used. The immunoglobulins were precipitated from 2 ml of TSab-containing serum with 6 ml of polyethylene glycol 6,000 (Baker; Phillipsburg, N.J.), centrifuged at 3,000×g for 20 minutes, and resuspended in 4 ml of NaCl-free HBSS with 0.5 mM IBMX and 0.5% BSA. The plated cells were washed with NaCl-free HBSS and the crude immunoglobulin extract, mixed with various concentrations of β-subunit peptides, was added in duplicate to the wells (total volume 200 μl/well). The cells were incubated for 2 hours at 37° C. and 5% CO2. The samples were then removed from the cells and a portion diluted 1:50 in NaOAc buffer, pH 6.2. A 25 μl aliquot of this was then used in a cAMP RIA as described above. The basal cAMP levels were determined for each plate of cells in the absence of immunoglobulin extract and β-peptides. A maximal cAMP level was attained by stimulating the cells with the immunoglobulin extract only. The percent increase in cAMP levels above basal was calculated as: [formula] as previously described (see Morris et al., supra). The percent inhibition of cAMP production by the β-subunit peptides was calculated as described above for TSH-stimulated cells, substituting pmol cAMP crude immunoglobulin for pmol cAMP TSH.
Inhibition of TSab activity was tested by comparing the replicates of cAMP levels generated in the presence of peptide to those generated by TSab alone using Student's T test for unpaired samples. Mean inhibition by the various doses of synthetic peptide for the patient group was tested by comparison with maximum cAMP response within each patient sample using the T test for paired samples.

T1 sequence (Q8SPP9 22-764): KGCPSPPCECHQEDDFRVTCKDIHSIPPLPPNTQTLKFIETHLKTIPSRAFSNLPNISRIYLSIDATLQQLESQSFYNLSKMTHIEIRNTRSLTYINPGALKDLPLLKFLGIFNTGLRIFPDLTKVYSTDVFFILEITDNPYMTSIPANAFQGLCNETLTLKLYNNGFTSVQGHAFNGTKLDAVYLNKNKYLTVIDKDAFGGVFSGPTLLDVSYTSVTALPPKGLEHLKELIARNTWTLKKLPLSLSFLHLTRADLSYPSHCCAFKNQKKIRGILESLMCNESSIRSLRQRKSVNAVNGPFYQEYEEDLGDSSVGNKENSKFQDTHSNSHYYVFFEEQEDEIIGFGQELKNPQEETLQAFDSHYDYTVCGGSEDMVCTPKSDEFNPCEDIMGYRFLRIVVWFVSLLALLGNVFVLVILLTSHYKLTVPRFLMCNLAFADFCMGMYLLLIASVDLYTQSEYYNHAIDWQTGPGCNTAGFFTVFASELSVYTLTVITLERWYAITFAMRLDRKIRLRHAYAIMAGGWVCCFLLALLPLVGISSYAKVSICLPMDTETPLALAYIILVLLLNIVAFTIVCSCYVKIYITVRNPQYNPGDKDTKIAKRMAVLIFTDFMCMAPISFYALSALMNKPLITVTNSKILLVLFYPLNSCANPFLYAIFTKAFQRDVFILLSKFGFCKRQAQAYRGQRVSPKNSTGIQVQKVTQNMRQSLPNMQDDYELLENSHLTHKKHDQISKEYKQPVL
T2 sequence (P16473 21-764): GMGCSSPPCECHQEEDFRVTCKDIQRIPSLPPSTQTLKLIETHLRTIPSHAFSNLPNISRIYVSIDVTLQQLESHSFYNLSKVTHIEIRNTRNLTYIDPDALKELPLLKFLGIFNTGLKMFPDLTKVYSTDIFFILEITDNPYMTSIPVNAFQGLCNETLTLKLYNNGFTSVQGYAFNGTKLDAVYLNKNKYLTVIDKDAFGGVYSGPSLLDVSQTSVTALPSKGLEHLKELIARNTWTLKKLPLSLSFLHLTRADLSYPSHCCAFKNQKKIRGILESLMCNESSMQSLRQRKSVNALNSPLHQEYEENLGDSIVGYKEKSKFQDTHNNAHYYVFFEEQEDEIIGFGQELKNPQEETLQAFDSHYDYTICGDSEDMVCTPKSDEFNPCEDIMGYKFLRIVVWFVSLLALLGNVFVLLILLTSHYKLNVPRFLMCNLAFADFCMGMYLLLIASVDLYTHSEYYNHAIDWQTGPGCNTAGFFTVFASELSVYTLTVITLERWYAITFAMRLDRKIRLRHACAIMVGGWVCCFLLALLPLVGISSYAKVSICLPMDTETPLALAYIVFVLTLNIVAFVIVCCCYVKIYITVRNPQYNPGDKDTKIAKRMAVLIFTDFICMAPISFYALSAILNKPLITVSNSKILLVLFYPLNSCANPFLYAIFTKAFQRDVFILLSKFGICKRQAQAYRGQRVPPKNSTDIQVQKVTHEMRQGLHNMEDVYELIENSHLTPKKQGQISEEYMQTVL
Chain of FRTL5 cells (P21463 22-764): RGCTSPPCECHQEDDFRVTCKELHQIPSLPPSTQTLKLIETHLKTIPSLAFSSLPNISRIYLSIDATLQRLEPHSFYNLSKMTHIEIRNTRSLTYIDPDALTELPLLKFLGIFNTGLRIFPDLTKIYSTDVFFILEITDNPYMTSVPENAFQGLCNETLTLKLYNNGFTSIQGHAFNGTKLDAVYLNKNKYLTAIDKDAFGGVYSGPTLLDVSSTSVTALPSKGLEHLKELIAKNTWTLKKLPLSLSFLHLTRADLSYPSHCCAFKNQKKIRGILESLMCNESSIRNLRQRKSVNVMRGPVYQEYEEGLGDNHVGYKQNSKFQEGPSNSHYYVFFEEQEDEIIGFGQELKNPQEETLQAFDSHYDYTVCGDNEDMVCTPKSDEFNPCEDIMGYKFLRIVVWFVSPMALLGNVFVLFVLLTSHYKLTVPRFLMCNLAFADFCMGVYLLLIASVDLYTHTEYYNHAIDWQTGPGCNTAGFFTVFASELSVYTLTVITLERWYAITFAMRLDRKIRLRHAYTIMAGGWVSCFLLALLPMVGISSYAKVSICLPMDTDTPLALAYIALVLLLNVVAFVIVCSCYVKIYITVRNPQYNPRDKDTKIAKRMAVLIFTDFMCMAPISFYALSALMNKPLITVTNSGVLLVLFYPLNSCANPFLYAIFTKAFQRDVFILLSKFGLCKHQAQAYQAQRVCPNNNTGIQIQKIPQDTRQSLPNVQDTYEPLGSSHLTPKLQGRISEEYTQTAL

| SMILES | EC50 [1] | EC50 [2] | Serum samples in which TSab-stimulated cAMP was significantly inhibited (p<0.05) / samples tested (FRTL5 cells) | Inhibition of TSab-stimulated cAMP generation (in words) (FRTL5 cells; listed as 71-85) | Inhibition of TSH binding to human thyroid membrane (in words) [2] | Inhibition of TSab-stimulated cAMP generation (in words) (FRTL5 cells) |
| --- | --- | --- | --- | --- | --- | --- |
| CC[C@H](C)[C@H](NC(=O)[C@@H](N)[C@@H](C)O)C(=O)N[C@@H](CC(N)=O)C(=O)N[C@H](C(=O)N[C@H](C(=O)N[C@H](C(=O)N[C@@H](CS)C(=O)N[C@@H](C)C(=O)NCC(=O)N[C@@H](Cc1ccc(O)cc1)C(=O)N[C@@H](CS)C(=O)N[C@@H](CCSC)C(=O)N[C@H](C(=O)N[C@@H](CCCNC(=N)N)C(=O)N[C@@H](CC(=O)O)C(N)=O)[C@@H](C)O)[C@@H](C)CC)[C@@H](C)O)[C@@H](C)O [β21-35] (H-TINTTICAGYCMTRD-NH2) | > 1000 µM | > 1000 µM | – | – | – | – |
| CC[C@H](C)[C@H](NC(=O)[C@H](CC(=O)O)NC(=O)[C@H](CCCNC(=N)N)NC(=O)[C@@H](NC(=O)[C@H](CCSC)NC(=O)[C@@H](N)CS)[C@@H](C)O)C(=O)N[C@@H](CC(N)=O)C(=O)NCC(=O)N[C@@H](CCCCN)C(=O)N[C@@H](CC(C)C)C(=O)N[C@@H](Cc1ccccc1)C(=O)N[C@@H](CC(C)C)C(=O)N1CCC[C@H]1C(=O)N[C@@H](CCCCN)C(=O)N[C@@H](Cc1ccc(O)cc1)C(N)=O [β31-45] (H-CMTRDINGKLFLPKY-NH2) | 200 ± 36 µM | 186 ± 25 µM | – | – | – | – |
| CC[C@H](C)[C@H](NC(=O)[C@H](Cc1ccccc1)NC(=O)[C@H](CC(=O)O)NC(=O)[C@H](CCCNC(=N)N)NC(=O)[C@H](Cc1ccc(O)cc1)NC(=O)[C@@H](NC(=O)[C@H](CS)NC(=O)[C@@H](N)C(C)C)[C@@H](C)O)C(=O)N[C@@H](Cc1ccc(O)cc1)C(=O)N[C@@H](CCCNC(=N)N)C(=O)N[C@H](C(=O)N[C@H](C(=O)N[C@@H](CCC(=O)O)C(=O)N[C@H](C(=O)N1CCC[C@H]1C(N)=O)[C@@H](C)CC)C(C)C)[C@@H](C)O [β51-65] (H-VCTYRDFIYRTVEIP-NH2) | > 1000 µM | > 1000 µM | – | – | – | – |
| CC[C@H](C)[C@H](NC(=O)[C@H](CCC(=O)O)NC(=O)[C@@H](NC(=O)[C@@H](N)[C@@H](C)O)C(C)C)C(=O)N1CCC[C@H]1C(=O)NCC(=O)N[C@@H](CS)C(=O)N1CCC[C@H]1C(=O)N[C@@H](CC(C)C)C(=O)N[C@@H](Cc1c[nH]cn1)C(=O)N[C@H](C(=O)N[C@@H](C)C(=O)N1CCC[C@H]1C(=O)N[C@@H](Cc1ccc(O)cc1)C(=O)N[C@@H](Cc1ccccc1)C(N)=O)C(C)C [β61-75] (H-TVEIPGCPLHVAPYF-NH2) | > 1000 µM | > 1000 µM | – | – | – | – |
| CC(C)C[C@H](NC(=O)[C@H](C)NC(=O)[C@@H](NC(=O)[C@@H]1CCCN1C(=O)[C@H](Cc1ccc(O)cc1)NC(=O)[C@H](CO)NC(=O)[C@H](Cc1ccccc1)NC(=O)[C@H](Cc1ccc(O)cc1)NC(=O)[C@@H]1CCCN1C(=O)[C@H](C)NC(=O)[C@@H](N)C(C)C)C(C)C)C(=O)N[C@@H](CO)C(=O)N[C@@H](CS)C(=O)N[C@@H](CCCCN)C(=O)N[C@@H](CS)C(N)=O [β71-85] (H-VAPYFSYPVALSCKC-NH2; N-terminus assumed) | – | – | 1/5 | effective only at the highest dose | inhibit binding of TSH to human thyroid membrane | significant inhibition only at the highest concentration |

Now from value to compound, other results behind:

| EC50 [1] | EC50 [2] | Serum samples in which TSab-stimulated cAMP was significantly inhibited (p<0.05) / samples tested (FRTL5 cells) | Inhibition of TSab-stimulated cAMP generation (in words) (FRTL5 cells; listed as 71-85) | SMILES | Inhibition of TSH binding to human thyroid membrane (in words) [2] | Inhibition of TSab-stimulated cAMP generation (in words) (FRTL5 cells) |
| --- | --- | --- | --- | --- | --- | --- |
| 186 ± 28 µM | > 1000 µM | – | – | CC[C@H](C)[C@H](N)C(=O)N[C@@H](CCC(=O)O)C(=O)N[C@@H](CCCNC(=N)N)C(=O)N[C@@H](CCCNC(=N)N)C(=O)N[C@@H](CCC(=O)O)C(=O)N[C@@H](CS)C(=O)N[C@@H](C)C(=O)N[C@@H](Cc1ccc(O)cc1)C(=O)N[C@@H](CS)C(=O)N[C@@H](CC(C)C)C(=O)N[C@H](C(=O)N[C@H](C(=O)N[C@@H](CC(N)=O)C(=O)N[C@H](C(=O)N[C@H](C(N)=O)[C@@H](C)O)[C@@H](C)O)[C@@H](C)CC)[C@@H](C)O [β11-25] (H-IERRECAYCLTINTT-NH2) | inactive | – |
| 216 ± 18 µM | 242 ± 58 µM | – | – | CC(C)C[C@H](NC(=O)[C@H](C)NC(=O)[C@H](Cc1ccc(O)cc1)NC(=O)[C@H](CCCCN)NC(=O)[C@@H]1CCCN1C(=O)[C@H](CC(C)C)NC(=O)[C@@H](N)Cc1ccccc1)C(=O)N[C@@H](CO)C(=O)N[C@@H](CCC(N)=O)C(=O)N[C@@H](CC(=O)O)C(=O)N[C@H](C(=O)N[C@@H](CS)C(=O)N[C@H](C(=O)N[C@@H](Cc1ccc(O)cc1)C(=O)N[C@@H](CCCNC(=N)N)C(N)=O)[C@@H](C)O)C(C)C [β41-55] (H-FLPKYALSQDVCTYR-NH2) | – | – |
| – | – | 1/12 | – | CC[C@H](C)[C@H](NC(=O)[C@H](C)NC(=O)[C@H](CCC(=O)O)NC(=O)[C@H](Cc1c[nH]cn1)NC(=O)[C@@H](NC(=O)[C@H](CS)NC(=O)[C@H](CC(=O)O)NC(=O)[C@H](CO)NC(=O)[C@H](Cc1ccc(O)cc1)NC(=O)[C@@H](N)CC(=O)O)[C@@H](C)CC)C(=O)N[C@@H](CCCCN)C(=O)N[C@H](C(=O)N[C@@H](CC(N)=O)C(=O)N[C@@H](Cc1ccc(O)cc1)C(=O)N[C@@H](CS)C(N)=O)[C@@H](C)O [β91-105] (H-DYSDCIHEAIKTNYC-NH2; N-terminus assumed) | – | did not inhibit TSab activity |
